These results are taken from patent US20090136977A1, “NOVEL TARGETS FOR ALZHEIMER'S DISEASE” (priority 2007, published 2009).

One assay has as its system ATase2 mRNA. As to the kind of experiment: Real-time quantitative PCR of ATase2 mRNA after ceramide treatment. The settings on record: H4 and SH-SY5Y cells; C6-ceramide 10 μM; seen as early as 4 hours, still evident after 4 days. Format: cell-based, human. The protocol:
(§1) Chinese Hamster Ovary (CHO) cells were grown in DMEM (Gibco BRL) supplemented with 10% fetal bovine serum (FBS) and penicillin/streptomycin (Mediatech, Inc., Herndon, Va.) as described before (Puglielli et al., 2001, Nat. Cell Biol. 3: 905-912; Puglielli et al., 2003, J. Biol. Chem. 278: 19777-19783). Cells were maintained in a humidified atmosphere with 5% CO2. For ceramide treatment, C6-ceramide (simply called “ceramide”) was administered in the absence of serum and at the final concentration of 10 μM; treatment was started when cells were ˜80% confluent and carried out for the time specified. […]
(§2) RNA quantification was performed by real-time PCR in an ABI PRISM® 7000 Sequence Detection System using SYBR® Green PCR Master Mix (Applied Biosystems). […] Delta-delta Ct values were normalized with those obtained from the amplification of GAPDH and were expressed as fold-change over control. […]
(§3) The 4-hour treatment was performed in the presence of 0.5% fetal bovine serum whereas the 4-days treatment was performed in the presence of 10% fetal bovine serum, as previously described (Puglielli et al., 2003, J. Biol. Chem. 278: 19777-19783; Costantini et al., 2007, Biochem. J. 407: 383-395)). Results are expressed as fold ±S.D. of control (no treatment). […] Results are expressed as fold ±S.D. of age-matched controls.

The subject of the next assay is ATase1 mRNA. The assay is described as follows: Real-time quantitative PCR of ATase1 mRNA after ceramide treatment. Format: cell-based, human. Particulars: H4 and SH-SY5Y cells; C6-ceramide 10 μM; seen as early as 4 hours, still evident after 4 days. On the procedure:
as §1, §2, §3

For a further assay, the system named is BACE1. The settings on record: different cell lines; Costantini et al., 2005; cited from earlier work.

As for `CCCCCCCCCCCCC/C=C/[C@@H](O)[C@H](CO)NC(=O)CCCCC` [ceramide, C6-ceramide], the “mRNA levels of ATase2 (transcription)” value in the assay with ATase2 mRNA is reported as “marked activation of transcription”. In the assay with ATase1 mRNA, the “mRNA levels of ATase1 (transcription)” value was “marked activation of transcription”. Also, the “acetylation and stabilization of BACE1” value in the assay on BACE1 was “increased acetylation and stabilization of BACE1”.
